Source: patent publication US12528818B2, “Compositions and methods for inhibition of RAS” (Leidos Biomedical Research, Inc., priority 2021, dated 2026)

The molecules below were run on pERK in NCI-H358 cells (assay: Cell-based pERK HTRF assay (pERK inhibition in H358 cells)). Conditions: Homo sapiens, NCI-H358, 0.5 h, pERK inhibition IC50, NCI-H358 cells, 30 min incubation; read-out: PERK in H358 cell.
Description: On Day 1, cells (NCI-H358) were seeded into 96-well plates at 4×10^4 cells/well in complete growth media (RPMI, 10% FBS).
The source plate was created with compounds diluted in media at 5-fold the final assay concentration. […] 20 μL was transferred onto the cell plates (final volume in wells was 100 μL). Plates were harvested after 30 min incubation by aspirating media and adding kit-supplied 1× supplemented lysis buffer to all wells (75 μl per well). Plates were then placed on a plate shaker and incubated at 850 rpm for an additional 30 min.
Antibody mixture solution was prepared by diluting aliquoted d2 and Eu Cryptate antibodies 1:20 in kit supplied detection buffer, then mixed the diluted antibodies solutions (1:1 v:v).
Samples were homogenized by pipetting up and down and then transferred (16 μL of cell lysates) from the 96-well cell culture plate to two wells of the HTRF 384-well detection plate containing the antibody solution. Plates were centrifuged (524 g for 1 min) and allowed to incubate between 4 and 24 h at room temperature. Maximum signal is reached after 4 h incubation time and remains stable over a period of 24 hours. Therefore, readings can be made between 4 and 24 h of incubation.

Row | Structure (SMILES) | IC50 [nM]
1 | C=CC(=O)N1CC[C@@H](N(CC)c2nc(OC[C@@]34CCCN3C[C@H](F)C4)nc3cc(-c4ccc(F)c5sc(N)c(C#N)c45)c(C#N)cc23)[C@H]1COC [Compound 439] | 100 to 1000
2 | C=CC(=O)N1CCN(c2nc(OCC34CCCN3CCC4)nc3c(F)c(-c4ccc(F)c5sc(N)nc45)c(OC(F)F)cc23)CC1 [Compound 254] | 100 to 1000
3 | C=CC(=O)N1CC[C@@H](N(CC)c2nc(OC[C@@]34CCCN3C[C@H](F)C4)nc3cc(-c4ccc(F)c5sc(N)c(C#N)c45)c(F)cc23)[C@H]1COC [Compound 437] | 100 to 1000
4 | C=CC(=O)N1CCC(N(C)c2nc(OC[C@@H]3CCCN3C)nc3cc(-c4ccc(F)c5sc(N)c(C#N)c45)c(F)cc23)[C@H]1C (some centres unmarked) [Compound 417] | 100 to 1000
5 | C=CC(=O)N1CC(Nc2nc(OCC34CCCN3CCC4)nc3c(F)c(-c4ccc(F)c5sc(N)nc45)c(-c4ccoc4)cc23)C1 [Compound 70, 1-(3-((7-(2-amino-7-fluorobenzo[d]thiazol-4-yl)-8-fluoro-6-(furan-3-yl)-2-((tetrahydro-1H-pyrrolizin-7a(5H)-yl)methoxy)quinazolin-4-yl)amino)azetidin-1-yl)prop-2-en-1-one] | > 1000
6 | C=CC(=O)N1CCN(c2ncnc3c(F)c(-c4ccc(F)c5sc(N)nc45)c(C4CCC4)cc23)CC1 [Compound 122] | > 1000
7 | C=CC(=O)N1CCC(Nc2nc(OC[C@@H]3CCCN3C)nc3c(F)c(-c4ccc(F)c5sc(N)nc45)c(Cl)cc23)C1 (some centres unmarked) [Compound 52] | > 1000
8 | C=CC(=O)N1CCC(N(C)c2nc(OC[C@@]34CCCN3C[C@H](F)C4)nc3c(C#N)c(-c4ccc(F)c5sc(N)c(C#N)c45)ccc23)[C@H]1C (some centres unmarked) [Compound 404] | 100 to 1000
9 | C=CC(=O)N1CC(N(C)c2nc(OC[C@@]34CCCN3C[C@H](F)C4)nc3c(F)c(-c4ccc(F)c5sc(N)nc45)c(Cl)cc23)C1 [Compound 247] | < 100
10 | C=CC(=O)N1CC[C@@H](N(C)c2nc(OC[C@@]34CCCN3C[C@H](F)C4)nc3c(F)c(-c4ccc(F)c5sc(N)c(C#N)c45)ccc23)C1 [Compound 311] | < 100
11 | C=CC(=O)N1CCN(c2nc(OCC34CCCN3CCC4)nc3c(F)c(-c4ccc(F)c5sc(N)nc45)c(C(F)(F)F)cc23)CC1 [Compound 80, 1-(4-(7-(2-amino-7-fluorobenzo[d]thiazol-4-yl)-8-fluoro-2-((tetrahydro-1H-pyrrolizin-7a(5H)-yl)methoxy)-6-(trifluoromethyl)quinazolin-4-yl)piperazin-1-yl)prop-2-en-1-one] | < 100
12 | C=CC(=O)N1CC[C@@H](N(CC)c2nc(OC[C@@]34CCCN3C[C@H](F)C4)nc3cc(-c4ccc(F)c5sc(N)c(C#N)c45)c(C(F)(F)F)cc23)C1 [Compound 352] | < 100
13 | C=CC(=O)N1C[C@@H](F)[C@@H](N(C)c2nc(OC[C@@]34CCCN3C[C@H](F)C4)nc3c(F)c(-c4ccc(F)c5sc(N)nc45)c(C#N)cc23)C1 [Compound 360] | 100 to 1000
14 | C=CC(=O)N1CC(Nc2nc(OCC34CCCN3CCC4)nc3c(F)c(-c4ccc(F)c5sc(N)nc45)c(CC#N)cc23)C1 [Compound 91, 2-(4-((1-acryloylazetidin-3-yl)amino)-7-(2-amino-7-fluorobenzo[d]thiazol-4-yl)-8-fluoro-2-((tetrahydro-1H-pyrrolizin-7a(5H)-yl)methoxy)quinazolin-6-yl)acetonitrile] | > 1000
15 | C=CC(=O)N1CC[C@@H](N(C)c2nc(OCC34CCCN3CCC4)nc3c(F)c(-c4c(O)cccc4F)c(C(F)(F)F)cc23)C1 [Compound 227] | > 1000
16 | C=CC(=O)N1CCC(N(C)c2nc(OC[C@@H]3C[C@@H](F)CN3C)nc3c(F)c(-c4ccc(F)c5sc(N)c(C#N)c45)ccc23)[C@H]1C (some centres unmarked) [Compound 429] | < 100
17 | C=CC(=O)N1C[C@H](C)N(c2nc(OCC3(CN4CC[C@@H](F)C4)CC3)nc3c(F)c(-c4ccc(F)c5sc(N)nc45)c(C(F)(F)F)cc23)C[C@H]1C [Compound 286] | < 100
18 | C=CC(=O)N1C[C@H](C)N(c2nc(OC[C@@]34CCCN3C[C@H](F)C4)nc3c(Cl)c(-c4ccc(F)c5sc(N)nc45)c(C(F)(F)F)cc23)C[C@H]1C [Compound 295, 1-((2R,5S)-4-(7-(2-amino-7-fluorobenzo[d]thiazol-4-yl)-8-chloro-2-(((2R,7aS)-2-fluorotetrahydro-1H-pyrrolizin-7a(5H)-yl)methoxy)-6-(trifluoromethyl)quinazolin-4-yl)-2,5-dimethylpiperazin-1-yl)prop-2-en-1-one] | < 100
19 | C=CC(=O)N1CCN(c2nc(OC[C@@H]3CCCN3C)nc3c(F)c(-c4ccc(F)c5sc(N)nc45)c(OC(F)(F)F)cc23)CC1 [Compound 163] | 100 to 1000
20 | C=CC(=O)N1C[C@@H](F)[C@@H](N(C)c2nc(OC[C@@]34CCCN3C[C@H](F)C4)nc3c(F)c(-c4ccc(F)c5sc(N)c(C#N)c45)ccc23)C1 [Compound 359] | < 100
21 | C=CC(=O)N1CCN(c2nc(OCC34CCCN3CCC4)nc3c(F)c(-c4ccc(F)c5oc(N)nc45)c(C(F)(F)F)cc23)CC1 [Compound 162, 1-(4-(7-(2-amino-7-fluorobenzo[d]oxazol-4-yl)-8-fluoro-2-((tetrahydro-1H-pyrrolizin-7a(5H)-yl)methoxy)-6-(trifluoromethyl)quinazolin-4-yl)piperazin-1-yl)prop-2-en-1-one] | 100 to 1000
22 | C=CC(=O)N1CC[C@@H](N(C)c2nc(OC[C@@]34CCCN3C[C@H](F)C4)nc3c(Cl)c(-c4ccc(F)c5sc(N)nc45)c(C(F)(F)F)cc23)C1 (single isomer, unassigned) [Compound 302] | < 100
23 | C=CC(=O)N1CCN(c2nc(OC[C@@]34CCCN3C[C@H](F)C4)nc3c(F)c(-c4ccc(F)c5sc(N)c(C#N)c45)c(C(F)(F)F)cc23)CC12CC2 [Compound 322] | < 100
24 | C=CC(=O)N1CCN(c2nc(OC[C@@]34CCCN3C[C@@H](F)C4)nc3c(F)c(-c4ccc(F)c5sc(N)nc45)c(C(F)(F)F)cc23)[C@@H](C)C1 [Compound 218] | < 100
25 | CC#CC(=O)N1CCN(c2nc(OCC34CCCN3CC(F)(F)C4)nc3c(F)c(-c4ccc(F)c5sc(N)nc45)c(C(F)(F)F)cc23)CC1 (centres unmarked) [Compound 193] | > 1000
26 | C=CC(=O)N1CC(N(C)c2nc(OC[C@]34CCCN3C[C@H](F)C4)nc3c(F)c(-c4ccc(F)c5sc(N)nc45)c(Cl)cc23)C1 [Compound 169] | 100 to 1000

More lines, now with the values ahead:

Row | IC50 [nM] | Structure (SMILES)
27 | < 100 | C=CC(=O)N1C[C@H](N(C)c2nc(OC[C@@]34CCCN3C[C@H](F)C4)nc3cc(-c4ccc(F)c5sc(N)nc45)c(C(F)(F)F)cc23)C[C@H]1C [Compound 309]
28 | < 100 | C=CC(=O)N1CC[C@@H](N(C)c2nc(OC)nc3c(F)c(-c4ccc(F)c5sc(N)c(C#N)c45)c(C(F)(F)F)cc23)C1 [Compound 384]
29 | < 100 | C=CC(=O)N1C[C@H](C)N(c2nc(OC[C@@]34CCCN3C[C@H](F)C4)nc3c(F)c(-c4ccc(F)c5sc(N)c(C#N)c45)c(C(F)(F)F)cc23)C[C@H]1C (single isomer, unassigned) [Compound 313]
30 | < 100 | C=CC(=O)N1C[C@H](C)[C@@H](N(C)c2nc(OC[C@@]34CCCN3C[C@H](F)C4)nc3c(F)c(-c4ccc(F)c5sc(N)nc45)c(C(F)(F)F)cc23)C1 [Compound 296]
31 | < 100 | C=CC(=O)N1CCN(c2nc(OC[C@@H]3CCCN3CC(F)F)nc3c(F)c(-c4ccc(F)c5sc(N)nc45)c(C(F)(F)F)cc23)CC1 [Compound 156]
32 | < 100 | C=CC(=O)N1CCN(c2nc(OC[C@@]34CCCN3C[C@H](F)C4)nc3c(F)c(-c4ccc(F)c5sc(N)nc45)c(C(F)(F)F)cc23)[C@@H](C)C1 [Compound 189]
33 | < 100 | C=CC(=O)N1CCN(c2nc(OC[C@]34CCCN3C[C@H](F)C4)nc3c(F)c(-c4ccc(F)c5sc(N)nc45)c(C(F)(F)F)cc23)C[C@@H]1C [Compound 165]
34 | < 100 | C=CC(=O)N1C[C@H](C)N(c2nc(OC[C@@H]3CCCN3C)nc3c(F)c(-c4ccc(F)c5sc(N)c(C#N)c45)c(C(F)(F)F)cc23)C[C@H]1C (single isomer, unassigned) [Compound 458]
35 | < 100 | C=CC(=O)N1CC[C@@H](N(C)c2nc(OC[C@]34CCCN3C[C@H](OC)C4)nc3c(F)c(-c4ccc(F)c5sc(N)nc45)c(C(F)(F)F)cc23)C1 (atropisomer, axis not shown) [Compound 277]
36 | < 100 | C=CC(=O)N1[C@@H](C)CN(c2nc(OC[C@@]34CCCN3C[C@H](F)C4)nc3c(F)c(-c4ccc(F)c5sc(N)c(C#N)c45)c(C(F)(F)F)cc23)C[C@@H]1C [Compound 321]
37 | < 100 | C=CC(=O)N1CCN(c2nc(OC[C@@H]3CC(F)(F)CN3C)nc3c(F)c(-c4ccc(F)c5sc(N)nc45)c(C(F)(F)F)cc23)CC1 [Compound 131]
38 | < 100 | C=CC(=O)N1C[C@@H](F)[C@@H](N(C)c2nc(OCC34CCCN3CCC4)nc3cc(-c4ccc(F)c5sc(N)c(C#N)c45)c(C(F)(F)F)cc23)C1 [Compound 369]
39 | < 100 | C=CC(=O)N1CCC(N(C)c2nc(OC[C@@H]3C[C@@H](F)CN3C)nc3c(F)c(-c4ccc(F)c5sc(N)c(C#N)c45)ccc23)[C@H]1COC (some centres unmarked) [Compound 423]
40 | < 100 | C=CC(=O)N1CCC(N(CC)c2nc(OC[C@@H]3C[C@@H](F)CN3C)nc3c(F)c(-c4ccc(F)c5sc(N)c(C#N)c45)c(C(F)(F)F)cc23)[C@H]1COC (some centres unmarked) [Compound 453]

Same assay, conditions: pERK inhibition IC50, NCI-H358 cells, 30 min incubation; read-out: PERK in H358 cell

Row | IC50 [nM] | Structure (SMILES)
41 | < 100 | C=CC(=O)N1CC[C@H](N(C)c2nc(OC[C@@]34CCCN3C[C@H](F)C4)nc3c(F)c(-c4ccc(F)c5sc(N)c(C#N)c45)c(C(F)(F)F)cc23)[C@@H]1C (single isomer, unassigned) [Compound 473]
